Data on three molecules can be found in patent US20240418723A1, “SEQUENTIAL TREATMENTS AND BIOMARKERS TO REVERSE RESISTANCE TO KINASE INHIBITORS” (Queen Mary University of London, priority 2021, published 2024).

For test [1], the system named is P31/Fuj cells. In words: Phosphoproteomics (LC-MS/MS) and kinase network analysis of treated P31/Fuj cells.
Procedure: To study ATRA effect over the phosphoproteome, P31/Fuj cells (10×10^6 cells at 0.5×10^6 cell/mL) were seeded in T75 flask and treated with either Et-OH, 1 μM ATRA or 10 μM ATRA for 5 days. […] For both experiments, cells were collected by centrifugation (1500 rpm for 5 min at 5° C.), then cell pellets were washed twice with ice cold PBS supplemented with phosphatase inhibitors (1 mM Na3VO4, 1 mM NaF) and stored at −80° C. Pellets were processed for phosphoproteomics analysis as indicated below.
In brief, cell pellets were lysed in 300 μL of urea buffer (8 M urea in 20 mM HEPES, pH 8.0, supplemented with 1 mM Na3VO4, 1 mM NaF, 1 mM Na4P2O7 and 1 mM P-glycerophosphate). Lysates were further homogenized by sonication (30 cycles of 30 s on 30 s off; Diagenode Bioruptor® Plus) and insoluble material was removed by centrifugation. Protein was quantified using BCA (Thermo Fisher Scientific). Then, 500 μg of protein were subjected to cysteine alkylation using sequential incubation with 10 mM dithiothreitol (DDT) and 16.6 mM iodoacetamide (IAM) for 1 h and 30 min, respectively, at 25° C. with agitation. Trypsin beads (50% slurry of TLCK-trypsin; Thermo Fisher Scientific; Cat. #20230) were equilibrated with 3 washes with 20 mM HEPES (pH 8.0), the urea concentration in the protein suspensions was reduced to 2 M by the addition of 20 mM HEPES (pH 8.0), 100 μL of equilibrated trypsin beads were added and the samples were incubated overnight at 37° C. Trypsin beads were removed by centrifugation (2000×g at 5° C. for 5 min) and the resulting peptide solutions were desalted through Oasis HLB cartridges (Waters) following the manufacturer's indications. Briefly, cartridges were set in a vacuum manifold device and the pressure was adjusted to 5 mmHg. Then, cartridges were conditioned with 1 mL acetonitrile (ACN) and equilibrated with 2.5 mL of wash solution (0.1% trifluoroacetic acid (TFA), 2% ACN). Peptides were loaded in the cartridges and washed with 1 mL of wash solution. Finally, peptides were eluted with 500 μL of glycolic acid buffer 1 (1 M glycolic acid, 5% TFA, 50% ACN). Enrichment of phosphorylated peptides was performed with TiO2 Beads (GL Sciences). The eluents were normalized to 1 mL with glycolic acid buffer 2 (1 M glycolic acid, 5% TFA, 80% ACN) and incubated with 50 μl of TiO2 buffer (50% slurry in 1% TFA) for 5 min at room temperature. TiO2 beads were packed by centrifugation into empty spin columns (Glygen Corporation; Cat. TT2EMT) previously washed with ACN. TiO2 beads were sequentially washed by centrifugation (1500×g for 3 min) with 100 μL of glycolic acid buffer 2, ammonium acetate solution (100 mM ammonium acetate in 25% ACN) and twice with neutral solution (10% ACN). For phosphopeptide elution, spin tips were transferred to fresh tubes, 50 μL of elution solution (5% NH4OH, 7.5% ACN) were added and tips were centrifuged at 1500×g for 3 min. The elution step was repeated a total of 4 times. Finally, samples were snap frozen, dried in a SpeedVac and phosphopeptide pellets were stored at −80° C.
Test [2] concerns P31/Fuj AML cells. In words: Sequential treatment of P31/Fuj cells (ATRA or LSD1 inhibitor 5 days, then MEKi 3 days; also co-treatment and reverse treatment): cell viability, cell number, apoptosis, CDI. The format is cell-based. As to conditions: for drug interaction with MEKi in sequential treatment (CDI): alternative LSD1 inhibitor 5 days then trametinib 3 days, P31/Fuj cells (FIGS. 10 D, E). The procedure:
The Bliss independence model was used to derive coefficients of drug interaction (CDI) values, where CDI <1 indicates significant priming by the […] (synergistic effect).
For the proliferation/viability assays, cells were seeded in T75 flasks (0.5×10^6 cells/mL of RPMI/FBS medium) and exposed for 5 days to either vehicle or epigenetic modifier. Unless otherwise specified, the final concentration for GSK2879552 (LSD1i), […] (EZH2i), pinometostat (DOT1Li) and ATRA was 1 μM while for decitabine (DNMTAi) and vorinostat (HDACi) was 100 nM; all epigenetic inhibitors were diluted in DMSO, while ATRA was diluted in Et-OH. Vehicle concentration was kept at 0.1%. […] The final concentration of DMSO was kept at 0.1%. Finally, cells were transferred to 96-well plates (100 μL per well in 3 technical replicates per condition) and cell viability and proliferation were assessed using Guava and ApoTox-Glo Triplex analyses, as indicated below.
For Guava analysis, cells were stained with Guava ViaCount reagent (Luminex #4000-0040) in 96-well plates, by mixing 150 μL of cell suspension with 75 μL of reagent, and left to incubate for a minimum of 10 minutes in the dark, after which they were processed through a Guava easyCyte flow cytometer (Luminex #0500-5005). Flow cytometry data were analysed using CytoSoft (v2.5.7). Viability and cell number values were expressed relative to vehicle control.
For ApoTox-Glo analysis, cell suspensions were transferred to opaque 96-well plates (100 μL per well) and viability and apoptosis measured using ApoTox-Glo Triplex Assay (Promega #G6320). 20 μL of Viability/Cytotoxicity reagent (containing GF-AFC and bis-AAF-R110 substrates) were added to each well, then incubated at 37° C. for 1 hour. Live cell and cytotoxicity outputs were measured on FLUOstar Omega microplate reader (BMG Labtech). To obtain the live cell output, fluorescence was measured at 355EX/520EM (wavelengths in nm); for the cytotoxicity output, fluorescence was measured at 485EX/520EM. Following this, 100 μL of Caspase-Glo 3/7 reagent were added to each well and incubated at 25° C. for 1 hour. Luminescence was then measured on FLUOstar Omega microplate reader (BMG Labtech). The fluorescence and luminescence signals thus obtained were corrected to the respective background controls (culture medium with no cells). Relative cell number values were obtained by normalising live cell outputs to vehicle control. Apoptosis values were obtained by dividing luminescence outputs to the respective live cell outputs, then normalising to vehicle control.
The extent of drug interaction was calculated in Microsoft Excel 2016 using the CDI formula AB/(A*B), where AB is the normalized reduction in cell viability of the sequential treatment, and A and B are the effects of single treatments. Statistical significance of CDI values for each AML sample was determined using a one sample t-test (base R package) with the null hypothesis being that the mean Log2(CDI) equals 0.

As for `CC1=C(/C=C/C(C)=C/C=C/C(C)=C/C(=O)O)C(C)(C)CCC1` [ATRA, all-trans-retinoic acid], the “phosphorylation of the MAPK and PI3K pathway markers ERK1 pY204 and c-MYC pT58/pS62” value in test [1] (ATRA 1 or 10 μM, 5 days, P31/Fuj cells (FIG. 9B)) is listed as “decreased”. Moreover, the “phosphorylation of CEBPE and LTB4R” value in test [1] (ATRA 1 or 10 μM, 5 days, dose-dependent manner, P31/Fuj cells (FIG. 9B)) is “increasing”. For the same molecule, in test [1] (ATRA 5 days, P31/Fuj cells), the “axes containing CDKL5 and stress kinases such as STK4” value is on record as “increasing”; the “phosphorylation of MAPK1 and PI3K signaling axes” value is given as “decreased”. The “sensitisation to MEKi (trametinib) treatment, cell viability” value in test [2] (ATRA pre-treatment for five days, then trametinib, P31/Fuj cells (FIG. 2B)) was “sensitised myeloid P31/Fuj cells to MEKi treatment”.

As for `Cl.Cl.NC1CCC(N[C@@H]2C[C@H]2c2ccccc2)CC1` (relative stereo) [ORY-1001, rel-N1-[(1R,2S)-2-phenylcyclopropyl]-1,4-cyclohexanediamine, dihydrochloride], the “drug interaction with MEKi in sequential treatment (CDI)” value in test [2] is “synergistic interactions with MEKi”.

Turning to `COc1ccc(-c2c(-c3ccc(C#N)c(F)c3)nc(N3CCC(N)CC3)n(C)c2=O)cc1F` [CC-90011], the “drug interaction with MEKi in sequential treatment (CDI)” value in test [2] is listed as “synergistic interactions with MEKi”.
